Experimental data as given in US8003785B2 (Takeda Pharmaceutical Company Limited, priority 2008, dated 2011).

biological target: T1, PLK1 (Homo sapiens, UniProt P53350); test: Biochemical Characterization Assay: HTRF kinase assay, GST-PLK1 phosphorylation of GST-p53; conditions: GST-PLK1, GST-p53 substrate
T1 construct: Full-length, active GST-PLK1 is purified from Sf9 insect cells; made in house; host or cells: Sf9 insect cells
In short: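 Full-length active GST-PLK1 (Sf9, 3 ug/mL) phosphorylated full-length GST-p53 (E. coli) in Kinase Assay Buffer for 35 min at 37 °C. Stopped with EDTA; phospho-p53 detected by HTRF with anti-phospho-p53, Eu-anti-rabbit and APC-anti-GST antibodies.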

T1 sequence (P53350 whole entry): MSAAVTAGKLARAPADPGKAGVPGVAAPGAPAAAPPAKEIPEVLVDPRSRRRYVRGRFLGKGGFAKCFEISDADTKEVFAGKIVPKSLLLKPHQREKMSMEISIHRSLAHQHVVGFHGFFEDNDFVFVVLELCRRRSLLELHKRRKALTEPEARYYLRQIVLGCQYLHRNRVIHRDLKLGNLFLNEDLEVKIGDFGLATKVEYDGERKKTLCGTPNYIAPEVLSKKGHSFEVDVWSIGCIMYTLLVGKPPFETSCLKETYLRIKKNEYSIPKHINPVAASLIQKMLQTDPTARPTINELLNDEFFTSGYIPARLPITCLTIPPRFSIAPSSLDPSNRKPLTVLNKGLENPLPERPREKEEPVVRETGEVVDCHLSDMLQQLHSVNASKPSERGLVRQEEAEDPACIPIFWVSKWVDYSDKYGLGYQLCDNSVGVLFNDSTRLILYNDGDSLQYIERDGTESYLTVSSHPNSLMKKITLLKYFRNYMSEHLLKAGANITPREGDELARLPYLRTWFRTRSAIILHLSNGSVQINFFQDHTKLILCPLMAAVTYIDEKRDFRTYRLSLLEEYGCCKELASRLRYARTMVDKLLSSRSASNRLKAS

CN1CCC(NC(=O)c2ccc(Nc3ncc4c(n3)N(C3CCCC3)CC(F)(F)C(=O)N4C)c(F)c2)CC1 [Example I-183, 4-(9-cyclopentyl-7,7-difluoro-5-methyl-6-oxo-6,7,8,9-tetrahydro-5H-pyrimido[4,5-b][1,4]diazepin-2-ylamino)-3-fluoro-N-(1-methyl-piperidin-4-yl)-benzamide] and COc1cc(C(=O)NC2CCN(CC(F)F)CC2)ccc1Nc1ncc2c(n1)N(C1CCCCC1)CC(F)(F)C(=O)N2C [Example I-266, 4-(9-cyclohexyl-7,7-difluoro-5-methyl-6-oxo-6,7,8,9-tetrahydro-5H-pyrimido[4,5-b][1,4]diazepin-2-ylamino)-N-[1-(2,2-difluoro-ethyl)-piperidin-4-yl]-3-methoxy-benzamide] fall in the same range of IC50: 0.001 to 0.05 µM for the first, 0.001 to 0.05 µM for the second.

Compared with CCc1cc(C(=O)NCCCN(C)C)ccc1Nc1ncc2c(n1)N(C1CCCC1)CC(F)(F)C(=O)N2C [Example I-199, 4-(9-cyclopentyl-7,7-difluoro-5-methyl-6-oxo-6,7,8,9-tetrahydro-5H-pyrimido[4,5-b][1,4]diazepin-2-ylamino)-N-(3-dimethylamino-propyl)-3-ethyl-benzamide], COc1cc(C(N)=O)ccc1Nc1ncc2c(n1)N(CCCc1ccccc1)CC(F)(F)C(=O)N2C [Example I-283, 4-[7,7-difluoro-5-methyl-6-oxo-9-(3-phenyl-propyl)-6,7,8,9-tetrahydro-5H-pyrimido[4,5-b][1,4]diazepin-2-ylamino]-3-methoxy-benzamide] is higher in IC50: 0.001 to 0.05 µM for the first, 0.051 to 0.5 µM for the second. The first is the more potent here.

In the case of COc1cc(C(=O)O)ccc1Nc1ncc2c(n1)N(CCc1ccccc1)CC(F)(F)C(=O)N2C [Example I-275, 4-(7,7-difluoro-5-methyl-6-oxo-9-phenethyl-6,7,8,9-tetrahydro-5H-pyrimido[4,5-b][1,4]diazepin-2-ylamino)-3-methoxy-benzoic acid], the IC50 is reported as 0.051 to 0.5 µM.

same assay, conditions: GST-PLK1, GST-p53 substrate, ATP

CN(C)CCCNC(=O)c1ccc(Nc2ncc3c(n2)N(C2CCC2)CC(F)(F)C(=O)N3C)cc1 [Example I-19, 4-(9-cyclobutyl-7,7-difluoro-5-methyl-6-oxo-6,7,8,9-tetrahydro-5H-pyrimido[4,5-b][1,4]diazepin-2-ylamino)-N-(3-dimethylamino-propyl)-benzamide] and COc1cc(C(=O)NCCN2CCCCC2)ccc1Nc1ncc2c(n1)N(C1CCCC1)CC(F)(F)C(=O)N2C [Example I-114, 4-(9-cyclopentyl-7,7-difluoro-5-methyl-6-oxo-6,7,8,9-tetrahydro-5H-pyrimido[4,5-b][1,4]diazepin-2-ylamino)-3-methoxy-N-(2-piperidin-1-yl-ethyl)-benzamide] fall in the same range of IC50: 0.001 to 0.05 µM for the first, 0.001 to 0.05 µM for the second.

COc1cc(C(=O)NC2CC(C)(C)N(C)C(C)(C)C2)ccc1Nc1ncc2c(n1)N(C1CCCC1)CC(F)(F)C(=O)N2C [Example I-85, 4-(9-cyclopentyl-7,7-difluoro-5-methyl-6-oxo-6,7,8,9-tetrahydro-5H-pyrimido[4,5-b][1,4]diazepin-2-ylamino)-3-methoxy-N-(1,2,2,6,6-pentamethyl-piperidin-4-yl)-benzamide] and COc1cc(C(=O)N[C@H]2CC[C@@H](N)CC2)ccc1Nc1ncc2c(n1)N(C1CCCC1)CC(F)(F)C(=O)N2C [Example I-98, cis-N-(4-amino-cyclohexyl)-4-(9-cyclopentyl-7,7-difluoro-5-methyl-6-oxo-6,7,8,9-tetrahydro-5H-pyrimido[4,5-b][1,4]diazepin-2-ylamino)-3-methoxy-benzamide] fall in the same range of IC50: 0.001 to 0.05 µM for the first, 0.001 to 0.05 µM for the second.

COc1cc(C(=O)NCc2ccc(C(F)(F)F)cc2)ccc1Nc1ncc2c(n1)N(C1CCCC1)CC(F)(F)C(=O)N2C [Example I-36, 4-(9-cyclopentyl-7,7-difluoro-5-methyl-6-oxo-6,7,8,9-tetrahydro-5H-pyrimido[4,5-b][1,4]diazepin-2-ylamino)-3-methoxy-N-(4-trifluoromethyl-benzyl)-benzamide] gave an IC50 of 0.5 to 5 µM.
